# Square brackets hold non-standard residues; d marks the D form. Peptide text beside a SMILES is read from it. * marks the point of attachment. Phe(4-F) = N[C@@H](Cc1ccc(F)cc1)C(=O)O; hArg = N=C(N)NCCCC[C@H](N)C(=O)O; Cha = N[C@@H](CC1CCCCC1)C(=O)O; X1 = CC(=O)C(Cc1ccccc1)N*
# Molecular target: Prothrombin (Homo sapiens, UniProt P00734)
row,Ki [µM],Compound
1,> 10,CC(=O)O[C@]1(C(C)=O)CC[C@H]2[C@@H]3C[C@H](C)C4=CC(=O)CC[C@]4(C)C3CC[C@@]21C (some centres undefined)
2,> 10,CSCC[C@H](NC(=O)[C@H](CC(C)C)NC(=O)CNC(=O)[C@H](Cc1ccccc1)NC(=O)[C@H](Cc1ccccc1)NC(=O)[C@H](CCC(N)=O)NC(=O)[C@H](CCC(N)=O)NC(=O)[C@@H]1CCCN1C(=O)[C@H](CCCCN)NC(=O)[C@@H]1CCCN1C(=O)[C@@H](N)CCCN=C(N)N)C(N)=O [Arg-Pro-Lys-Pro-Gln-Gln-Phe-Phe-Gly-Leu-Met NH2]
3,> 10,NC(N)=NCCCC(N)C(=O)N1CCCC1C(=O)N1CCCC1C(=O)NCC(=O)NC(Cc1ccccc1)C(=O)NC(CO)C(=O)N1CCCC1C(=O)NC(Cc1ccccc1)C(=O)O (centres undefined) [CAS_58-82-2]
4,> 10,CCC(C)C(NC(=O)C(CO)NC(=O)C(CC(N)=O)NC(=O)C(CC(C)C)NC(=O)C(Cc1ccc(O)cc1)NC(=O)C(CCCCN)NC(=O)C(CCCCN)NC(=O)C(NC(=O)C(C)NC(=O)C(CCSC)NC(=O)C(CCC(N)=O)NC(=O)C(CCCCN)NC(=O)C(CCCN=C(N)N)NC(=O)C(CC(C)C)NC(=O)C(CCCN=C(N)N)NC(=O)C(NC(=O)C(Cc1ccc(O)cc1)NC(=O)C(CC(N)=O)NC(=O)C(CC(=O)O)NC(=O)C(NC(=O)C(Cc1ccccc1)NC(=O)C(NC(=O)C(C)NC(=O)C(CC(=O)O)NC(=O)C(CO)NC(=O)C(N)Cc1cnc[nH]1)C(C)C)C(C)O)C(C)O)C(C)C)C(=O)NC(CC(C)C)C(=O)NC(CC(N)=O)C(=O)O (centres undefined) [CAS_37221-79-7]
5,0.168,CC(C)C[C@H](NC(=O)[C@H](CC(C)C)NC(=O)[C@H](Cc1ccccc1)NC(=O)[C@@H](N)CO)C(=O)N[C@@H](CCCN=C(N)N)C(=O)N[C@@H](CC(N)=O)C(N)=O [CAS_141923-40-2]
6,> 10,"CC(C)C[C@H](NC(=O)CNC(=O)[C@H](CC(N)=O)NC(=O)[C@H](CCCCN)NC(=O)[C@H](CC(=O)O)NC(=O)[C@H](CO)NC(=O)[C@H](Cc1ccccc1)NC(=O)[C@H](CO)NC(=O)[C@H](CCCNC(=N)N)NC(=O)[C@H](Cc1cnc[nH]1)NC(=O)[C@H](CC(N)=O)NC(=O)CNC(=O)[C@@H](NC(=O)[C@H](C)NC(=O)[C@H](Cc1cnc[nH]1)NC(=O)[C@@H]1CCCN1C(=O)CNC(=O)[C@H](CC(C)C)NC(=O)[C@H](CC(C)C)NC(=O)[C@H](Cc1ccc(O)cc1)NC(=O)CNC(=O)[C@H](C)NC(=O)[C@H](CO)NC(=O)[C@H](CC(N)=O)NC(=O)[C@H](CC(C)C)NC(=O)[C@@H](NC(=O)[C@H](Cc1c[nH]c2ccccc12)NC(=O)CN)[C@@H](C)O)C(C)C)C(=O)N[C@H](C(=O)N[C@@H](CO)C(=O)O)[C@@H](C)O [Galanin, Human]"
7,0.024,C[C@H](N)C(=O)N[C@@H](Cc1ccc(F)cc1)C(=O)N[C@@H](CCCN=C(N)N)C(=O)N[C@@H](CC1CCCCC1)C(=O)N[C@@H](CCCCN=C(N)N)C(=O)N[C@@H](Cc1ccccc1)C(N)=O [L-Ala-4-Fluoro-L-Phe-L-Arg-3-cyclohexyl-L-Ala-N-amidino-L-Lys-L-Phe-NH2] (H-A[Phe(4-F)]R[Cha][hArg]F-NH2)
8,> 10,CCC(C)C(NC(=O)C(Cc1ccc(O)cc1)NC(=O)C(NC(=O)C(CCCN=C(N)N)NC(=O)C(N)CC(=O)O)C(C)C)C(=O)NC(Cc1cnc[nH]1)C(=O)NC(Cc1cnc[nH]1)C(=O)N1CCCC1C(=O)NC(Cc1ccccc1)C(C)=O (centres undefined) [NSC_439662] (H-DRVYIHHP-X1; configuration not given here)
9,> 10,CSCCC(NC(=O)C(CC(C)C)NC(=O)CNC(=O)C(NC(=O)C(Cc1ccccc1)NC(=O)C(CO)NC(=O)C(CC(=O)O)NC(=O)C(NC(=O)C(CCCCN)NC(=O)C(N)Cc1cnc[nH]1)C(C)O)C(C)C)C(N)=O (stereo not drawn) [Neurokinin alpha]
10,> 10,CC(C)C[C@H](NC(=O)[C@H](CC(C)C)NC(=O)[C@H](Cc1ccccc1)NC(=O)[C@@H](N)CO)C(=O)N[C@@H](CCCN=C(N)N)C(=O)O [SFLLR-OH]
11,0.54,CC(C)C[C@H](NC(=O)[C@H](CC(C)C)NC(=O)[C@H](Cc1ccccc1)NC(=O)[C@@H](N)CO)C(=O)N[C@@H](CCCN=C(N)N)C(=O)N[C@@H](CC(N)=O)C(=O)O [SFLLRN-OH]
12,1.1,CC(C)CC(NC(=O)C(Cc1ccccc1)NC(=O)C(N)CO)C(=O)NC(CC(C)C)C(=O)NC(CCCN=C(N)N)C(=O)NC(CC(N)=O)C(=O)N1CCCC1C(=O)NC(CC(N)=O)C(=O)NC(CC(=O)O)C(=O)NC(CCCCN)C(=O)NC(Cc1ccc(O)cc1)C(=O)NC(CCC(=O)O)C(=O)N1CCCC1C(=O)NC(Cc1ccccc1)C(=O)O (centres undefined) [SFLLRNPNDKYEPF-OH] (H-SFLLRNPNDKYEPF-OH; configuration not given here)
13,> 10,H-FSLLRN-NH2 [FSLLRN-NH2]
14,> 10,H-SLIGKV-NH2 [CAS_190383-13-2]

# Reference: BindingDB's records for doi:10.1124/mol.51.2.350 (Schering-Plough Research Institute, 1997)
